The values that follow come from ChEMBL document CHEMBL1136017, “Computational studies on tetrahydropyrimidine-2-one HIV-1 protease inhibitors: improving three-dimensional quantitative structure-activity relationship comparative molecular field analysis models by inclusion of calculated inhibitor- and receptor-based properties” (J Med Chem, 2002).

Molecules are shown by their SMILES.

For orientation: Ki means the dissociation constant of the complex between target and ligand, obtained from inhibition or displacement. Higher therefore signals lower affinity.

The target of this assay is Human immunodeficiency virus type 1 protease (Human immunodeficiency virus 1, UniProt Q72874). The assay is described as follows: Inhibitory activity against HIV-1 protease.
In turn, `Cc1ccc(C(=O)Nc2cccc(CN3C(=O)N(Cc4cccc(NC(=O)c5ccc(C)cn5)c4)[C@H](Cc4ccccc4)[C@H](O)[C@H]3CCc3ccccc3)c2)nc1` gave a Ki of 0.0794 nM.

Compound `O=C(Nc1cccc(CN2C(=O)N(Cc3cccc(NC(=O)c4nccs4)c3)[C@H](Cc3ccccc3)[C@H](O)[C@H]2CCc2ccccc2)c1)c1nccs1` gave a Ki of 0.0302 nM.

For `N/C(=N\O)c1cccc(CN2C(=O)N[C@H](CCc3ccccc3)[C@@H](O)[C@H]2Cc2ccccc2)c1`, the Ki is 0.24 nM. Against the preceding compound, the Ki is about 7.9-fold higher.

On to `Nc1cccc(CN2C(=O)N[C@H](Cc3ccccc3)[C@H](O)[C@H]2CCc2ccccc2)c1`, for which the affinity corresponds to a Ki of 6.17 nM.

Take `Nc1cccc(CN2C(=O)N[C@H](CCc3ccccc3)[C@@H](O)[C@H]2Cc2ccccc2)c1`: the Ki is 158 nM.
